Results as given in US5789405A, “Oxaspiro(2,5)octane derivative” (Fujisawa Pharmaceutical Co., Ltd., priority 1988, dated 1998).
≈ marks a conversion by molar mass, not a printed value.

System: Endothelial cells from human umbilical vein (HUVEC)
Experiment: Test effect on endothelial cell growth (HUVEC proliferation, MTT method)
Format: cell-based
Settings: 120 h, 5 days incubation at 37° C., graphically determined, read-out: IC50 (50% inhibition doses of the test compound to endothelial cell growth)
Procedure: Test effect of the object compound (I) on endothelial cell growth
Endothelial cells from human umbilical vein (HUVEC) were used for this experiment.
HUVEC (2×10^3 cells per well) were plated on 96 wells microtiter plates previously coated with human fibronectin and incubated with MCDB 151 [GIBCO] medium supplemented with 15% FBS (fetal bovine serum), […] ECGS (Endothelial cell growth supplement), 10 μg/ml heparin in the presence of the test compound at 37° C. under 5% CO2 in the air for 5 days. At the end of the experiments, the growth rate of HUVEC was measured according to the MTT method [Cancer treatment Reports 71, 1141~1149 (1987)].
IC50 values [50% inhibition doses of the test compound to endothelial cell growth) of the test compound were graphically determined and are shown in the following table.

| SMILES | IC50 [ng/mL] |
| --- | --- |
| COC1C(OC(=O)N2CCOCC2)CCC2(CO2)C1C1(C)OC1CC=C(C)C (centres unmarked) | 0.62 (≈ 1.57 nM) |
| CNC(=O)OC1CCC2(CO2)C(C2(C)OC2CC=C(C)C)C1OC (centres unmarked) | 0.21 (≈ 0.619 nM) |
